Values of other authors, collected in patent publication US12728103B2, “Pharmaceutical composition comprising mitotane administered orally for treatment of adrenocortical carcinoma and Cushing's syndrome” (priority 2019, dated 2026).

Clc1ccc(C(c2ccccc2Cl)C(Cl)Cl)cc1 (centres unmarked) [Mitotane, ortho,para'dichloro-diphenyl-dichloroethane]
concentration in fat relative to plasma (accumulation in fat): ~200 times | product found in the faeces in an unmetabolized form (humans, conventional tablet): 60% | mitotaemia at which neurological disorders (ataxia, depressive syndrome) occur (patients): exceeds 20 mg/L | plasma concentration to be reached to be effective (patients): at least 14 mg/L | treatment time to reach the effective plasma concentration (patients, average): 3 months
